Values quoted from earlier work as cited in patent publication US4134792A, “Specific binding assay with an enzyme modulator as a labeling substance” (Miles Laboratories, Inc., priority 1976, dated 1979).

System: glycogen synthetase
Parameters: key: inhibitory or negative effectors are indicated by (-); stimulatory or positive effectors are indicated by (+)
Conditions: yeast and lamb muscle; cited from earlier work

O=P(O)(O)OC[C@H]1OC(O)[C@H](O)[C@@H](O)[C@@H]1O (stereo partly shown) [glucose-6-phosphate]
allosteric effector: inhibitory (-) or stimulatory (+): +
